# Results: US20220409598A1, “METHOD OF CONTROLLING BLOOD SUGAR LEVEL AND TREATMENT OF DIABETES AND RELATED CONDITIONS” (ILDONG PHARMACEUTICAL CO., LTD., priority 2021, published 2022)
# Where two headings read alike, the source gives them in different places.
# Key:
# human hepatocytes [1] = assay: Covalent protein binding in human hepatocytes; type: in vitro ADME
# Procedure: The covalent binding (CVB) burden was estimated by determining the CVB of radiolabeled compound to human hepatocytes and factoring in both the daily dose and the fraction of metabolism leading to CVB. […] Reference Example 1 compound's dose over 260 mg a day was predicted to exceed the CVB burden threshold of 1 mg/day.
# [2] = test system: glycocholic acid (GCA) accumulation; assay: Bile acid analysis, glycocholic acid (GCA) accumulation; type: cell-based
# From the text: Glycocholic acid (GCA) and glycochenodeoxycholic acid (GCDCA) are major components of human bile acids and their significant increase has been confirmed in DILI patients.
# MRP4 = target: T1, MRP4 (Homo sapiens, UniProt O15439); assay: Human transporter inhibition study, MRP4; type: biochemical; conditions: read-out: MRP4 in vitro inhibition IC50
# T1 sequence (O15439 1-1325): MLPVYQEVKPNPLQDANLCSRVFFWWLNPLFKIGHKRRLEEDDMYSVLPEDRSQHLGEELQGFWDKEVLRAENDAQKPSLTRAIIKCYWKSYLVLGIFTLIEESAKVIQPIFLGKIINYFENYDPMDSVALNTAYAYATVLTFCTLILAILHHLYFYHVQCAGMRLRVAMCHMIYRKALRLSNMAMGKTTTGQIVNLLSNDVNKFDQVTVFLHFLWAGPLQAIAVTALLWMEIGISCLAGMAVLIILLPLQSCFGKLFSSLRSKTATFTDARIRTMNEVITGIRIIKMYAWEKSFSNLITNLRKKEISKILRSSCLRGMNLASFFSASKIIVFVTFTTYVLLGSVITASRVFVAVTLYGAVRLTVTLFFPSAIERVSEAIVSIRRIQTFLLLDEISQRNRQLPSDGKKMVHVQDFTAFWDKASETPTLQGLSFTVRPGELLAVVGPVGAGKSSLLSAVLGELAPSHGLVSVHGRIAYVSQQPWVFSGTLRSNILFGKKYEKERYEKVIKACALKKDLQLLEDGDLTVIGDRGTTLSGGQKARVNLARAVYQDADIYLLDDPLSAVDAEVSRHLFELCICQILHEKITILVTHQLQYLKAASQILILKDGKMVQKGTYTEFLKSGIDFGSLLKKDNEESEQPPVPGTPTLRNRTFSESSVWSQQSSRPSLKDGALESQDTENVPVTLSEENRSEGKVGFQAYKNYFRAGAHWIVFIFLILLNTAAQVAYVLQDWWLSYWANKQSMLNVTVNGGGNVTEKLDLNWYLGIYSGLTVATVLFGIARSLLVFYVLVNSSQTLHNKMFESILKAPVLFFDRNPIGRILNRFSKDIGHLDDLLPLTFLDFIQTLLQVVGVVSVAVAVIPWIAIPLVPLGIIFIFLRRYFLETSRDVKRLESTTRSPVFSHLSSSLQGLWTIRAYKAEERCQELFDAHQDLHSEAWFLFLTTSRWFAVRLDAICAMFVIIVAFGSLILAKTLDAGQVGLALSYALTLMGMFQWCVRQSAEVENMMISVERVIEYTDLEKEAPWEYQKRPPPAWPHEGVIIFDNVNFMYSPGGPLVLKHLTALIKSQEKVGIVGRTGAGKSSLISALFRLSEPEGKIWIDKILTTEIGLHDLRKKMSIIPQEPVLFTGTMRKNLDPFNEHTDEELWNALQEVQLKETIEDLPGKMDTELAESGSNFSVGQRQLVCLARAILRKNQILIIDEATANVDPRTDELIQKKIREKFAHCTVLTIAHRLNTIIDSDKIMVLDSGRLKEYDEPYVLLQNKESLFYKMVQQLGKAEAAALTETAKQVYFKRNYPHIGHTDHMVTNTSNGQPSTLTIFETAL
# From the text: (§1) • (a) Human Transporter Inhibition Study and Safety Margin
# [3] = Single ascending dose (SAD) study in healthy human, safety; type: in vivo
# Procedure: (§2) To determine safety and pK data in human subjects, single ascending dose (SAD) study was conducted. SAD study included 5 cohorts of 8 healthy subjects who were randomized and received a single oral dose of Reference Example 1 compound or placebo (3:1) at 0.5 mg, 1 mg, 2 mg, 5 mg, or 10 mg. Each cohort was initiated after review of the safety and PK data of the previous cohort. 5 mg cohort was divided into two groups, wherein one group was administered with Reference Example 1 compound in fasted state and the other group was administered with Reference Example 1 compound together with food.
# As expected from preclinical PK modelling, none of the single doses exceeded the PK stopping criteria for Cmax and AUClast.
# Of the 12 AEs, 5 were considered to be possibly related to IMP (Investigational Medicinal Product). The 5 AE included headaches (2), lower abdominal pain, diarrhea, and exanthema in the right upper arm, all of which were of mild intensity and recovered quickly.
# Overall, none of the AEs caused medical concern, and no stopping criteria per protocol were met.
# [4] = Single ascending dose (SAD) study in healthy human, plasma PK; type: in vivo; conditions: for AUC(0-inf) / AUC(0-t) / Cmax: human, plasma, po; for AUC(0-inf): read-out: AUCinf, geometric mean; for AUC(0-t): read-out: AUClast, geometric mean; for Cmax: read-out: Cmax, geometric mean
# Procedure: as §2
# Mean plasma concentration of Reference Example 1 compound following single dose of 0.5, 1, 2, 5, and 10 mg are shown in FIG. 4A (linear scale) and FIG. 4B (semi-logarithmic scale).
# FIG. 5A and FIG. 5B show mean plasma concentration of Reference Example 1 compound following single dose of 0.5 mg (fasted), 1 mg (fasted), 2 mg (fasted), 5 mg (fasted), and 5 mg (fed) in linear scale and semi-logarithmic scale, respectively.
# [5] = HμRELTox assay, hepatotoxic response; type: cell-based; conditions: read-out: TC50 (the source's name)
# HepaRG cell = assay: Mitochondrial function inhibition in HepaRG cell; type: cell-based
# FXR = assay: Transcription factor profiling in 2D HepG2 cell, FXR; type: cell-based; conditions: 10 μM for 48 hours
# [6] = test system: hepatic transcription factors; assay: Transcription factor profiling in 2D HepG2 cell, various hepatic transcription factors; type: cell-based; conditions: 2D HepG2 cell, 0.3, 3.3, 10 μM; compared to fasiglifam
# [7] = target: BSEP (bile salt export pump) (Homo sapiens, UniProt O95342); assay: Human transporter inhibition study, BSEP; type: biochemical
# From the text: DILI risk may be due to potency of BSEP inhibition in combination with in vivo drug exposure (e.g., Cmax or Css (plasma concentration at steady state)).
# as §1
# [8] = OGTT (Oral Glucose Tolerance Test) in SD rats; type: in vivo; conditions: 1 mg/kg
# Procedure: Additionally, the results of the exposure and efficacy of Reference Example 1 compound (at 0.1 mg/kg, 0.3 mg/kg, and 1 mg/kg doses) in SD rats are shown in FIG. 6.
# MRP3 = MRP3 (Homo sapiens, UniProt O15438); assay: Human transporter inhibition study, MRP3; type: biochemical
# From the text: as §1
# MRP2 = MRP2 (Homo sapiens, UniProt Q92887); assay: Human transporter inhibition study, MRP2; type: biochemical; conditions: read-out: MRP2 in vitro inhibition IC50
# From the text: as §1
# AP-1 = assay: Transcription factor profiling in 2D HepG2 cell, AP-1; type: cell-based; conditions: 10 μM for 24 hours
# human hepatocytes [9] = conditions: Otieno et al. 2018, cited from earlier work
# PPAR = assay: Transcription factor profiling in 2D HepG2 cell, PPAR; type: cell-based; conditions: 10 μM for 24 hours
# NRF2 = assay: Transcription factor profiling in 2D HepG2 cell, NRF2; type: cell-based; conditions: 10 μM for 24 hours
# [10] = cited from earlier work; for Cmax: fasiglifam, Clin. Pharmacol. Ther. 92, 29-39, read-out: Human Cmax (maximum plasma concentration at steady state); for Cpss, max: human
# [11] = diabetics, metformin on its own; cited from earlier work
# [12] = human hepatocytes, compound alone
# [13] = 0.5 mg, single oral dose 0.5 mg
# [14] = 5 mg, single oral dose 5 mg fasted
# [15] = 5 mg, single oral dose 5 mg fed
# [16] = in vitro inhibition, read-out: BSEP IC50
# Sequence of BSEP (bile salt export pump) (O95342 whole entry): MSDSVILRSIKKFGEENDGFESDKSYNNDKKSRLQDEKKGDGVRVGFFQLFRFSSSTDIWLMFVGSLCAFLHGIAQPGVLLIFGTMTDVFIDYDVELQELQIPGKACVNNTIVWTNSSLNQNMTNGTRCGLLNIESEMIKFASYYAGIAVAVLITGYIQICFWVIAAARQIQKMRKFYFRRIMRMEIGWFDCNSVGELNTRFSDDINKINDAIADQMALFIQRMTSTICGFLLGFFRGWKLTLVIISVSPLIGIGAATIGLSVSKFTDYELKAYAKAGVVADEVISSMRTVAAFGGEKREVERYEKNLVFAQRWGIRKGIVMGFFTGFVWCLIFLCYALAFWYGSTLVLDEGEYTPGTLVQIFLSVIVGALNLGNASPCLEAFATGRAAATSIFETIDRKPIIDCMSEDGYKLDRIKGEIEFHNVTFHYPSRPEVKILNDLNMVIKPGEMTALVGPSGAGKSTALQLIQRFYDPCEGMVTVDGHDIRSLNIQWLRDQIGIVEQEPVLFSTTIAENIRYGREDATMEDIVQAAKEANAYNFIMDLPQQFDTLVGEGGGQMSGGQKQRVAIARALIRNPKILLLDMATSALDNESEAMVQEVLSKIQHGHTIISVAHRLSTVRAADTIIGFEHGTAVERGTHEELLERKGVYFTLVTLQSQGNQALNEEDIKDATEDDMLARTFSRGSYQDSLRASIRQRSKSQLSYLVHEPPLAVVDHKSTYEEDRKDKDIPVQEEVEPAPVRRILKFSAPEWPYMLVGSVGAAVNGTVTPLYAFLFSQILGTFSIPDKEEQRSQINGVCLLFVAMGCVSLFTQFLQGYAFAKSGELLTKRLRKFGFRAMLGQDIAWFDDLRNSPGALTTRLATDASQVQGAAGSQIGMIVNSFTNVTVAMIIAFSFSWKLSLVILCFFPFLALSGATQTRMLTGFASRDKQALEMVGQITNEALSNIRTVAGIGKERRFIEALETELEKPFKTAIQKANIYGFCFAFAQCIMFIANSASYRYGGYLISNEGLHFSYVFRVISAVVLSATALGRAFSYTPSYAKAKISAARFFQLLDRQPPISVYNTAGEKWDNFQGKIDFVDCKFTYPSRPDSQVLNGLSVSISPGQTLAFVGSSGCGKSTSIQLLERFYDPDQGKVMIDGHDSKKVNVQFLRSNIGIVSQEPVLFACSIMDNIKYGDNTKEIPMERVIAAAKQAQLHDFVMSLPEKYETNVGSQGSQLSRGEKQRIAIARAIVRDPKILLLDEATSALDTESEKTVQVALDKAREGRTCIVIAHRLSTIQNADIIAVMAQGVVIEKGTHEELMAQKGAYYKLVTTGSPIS
# Sequence of MRP3 (O15438 whole entry): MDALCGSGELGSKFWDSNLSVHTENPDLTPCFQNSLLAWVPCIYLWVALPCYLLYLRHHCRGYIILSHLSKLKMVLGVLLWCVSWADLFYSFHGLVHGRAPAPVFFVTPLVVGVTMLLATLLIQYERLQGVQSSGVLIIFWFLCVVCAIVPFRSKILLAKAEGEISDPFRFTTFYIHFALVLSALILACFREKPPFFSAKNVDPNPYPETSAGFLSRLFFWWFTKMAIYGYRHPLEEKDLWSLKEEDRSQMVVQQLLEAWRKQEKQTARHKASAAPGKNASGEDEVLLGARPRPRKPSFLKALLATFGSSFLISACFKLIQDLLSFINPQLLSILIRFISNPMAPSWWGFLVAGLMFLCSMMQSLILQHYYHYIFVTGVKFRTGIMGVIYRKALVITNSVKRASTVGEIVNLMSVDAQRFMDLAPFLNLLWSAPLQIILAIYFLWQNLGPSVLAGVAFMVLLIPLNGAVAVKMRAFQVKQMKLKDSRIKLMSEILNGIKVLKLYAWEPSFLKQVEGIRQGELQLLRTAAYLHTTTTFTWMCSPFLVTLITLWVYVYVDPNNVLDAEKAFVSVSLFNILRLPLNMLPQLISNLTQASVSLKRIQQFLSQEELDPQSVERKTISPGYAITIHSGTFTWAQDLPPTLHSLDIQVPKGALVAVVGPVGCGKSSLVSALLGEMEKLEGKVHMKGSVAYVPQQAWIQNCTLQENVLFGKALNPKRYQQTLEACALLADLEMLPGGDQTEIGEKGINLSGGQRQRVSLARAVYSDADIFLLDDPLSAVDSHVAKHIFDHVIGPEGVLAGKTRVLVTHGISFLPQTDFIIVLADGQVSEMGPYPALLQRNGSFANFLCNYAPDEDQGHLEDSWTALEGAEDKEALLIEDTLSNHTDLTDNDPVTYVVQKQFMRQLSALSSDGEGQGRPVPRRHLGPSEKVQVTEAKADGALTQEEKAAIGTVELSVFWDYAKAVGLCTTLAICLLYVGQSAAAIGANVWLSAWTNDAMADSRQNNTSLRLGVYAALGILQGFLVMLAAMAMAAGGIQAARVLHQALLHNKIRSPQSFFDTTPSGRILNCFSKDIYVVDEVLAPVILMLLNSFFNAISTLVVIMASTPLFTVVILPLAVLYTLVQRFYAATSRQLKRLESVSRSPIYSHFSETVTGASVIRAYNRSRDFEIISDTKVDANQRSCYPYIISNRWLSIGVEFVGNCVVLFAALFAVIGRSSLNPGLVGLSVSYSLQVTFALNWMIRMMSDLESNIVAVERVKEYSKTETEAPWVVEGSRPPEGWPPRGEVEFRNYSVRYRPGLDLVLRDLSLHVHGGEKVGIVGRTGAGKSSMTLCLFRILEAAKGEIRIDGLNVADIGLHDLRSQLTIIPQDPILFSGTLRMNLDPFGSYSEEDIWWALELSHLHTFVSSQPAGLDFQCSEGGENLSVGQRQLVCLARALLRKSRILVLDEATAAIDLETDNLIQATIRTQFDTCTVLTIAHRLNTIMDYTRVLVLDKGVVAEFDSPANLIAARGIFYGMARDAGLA
# Sequence of MRP2 (Q92887 whole entry): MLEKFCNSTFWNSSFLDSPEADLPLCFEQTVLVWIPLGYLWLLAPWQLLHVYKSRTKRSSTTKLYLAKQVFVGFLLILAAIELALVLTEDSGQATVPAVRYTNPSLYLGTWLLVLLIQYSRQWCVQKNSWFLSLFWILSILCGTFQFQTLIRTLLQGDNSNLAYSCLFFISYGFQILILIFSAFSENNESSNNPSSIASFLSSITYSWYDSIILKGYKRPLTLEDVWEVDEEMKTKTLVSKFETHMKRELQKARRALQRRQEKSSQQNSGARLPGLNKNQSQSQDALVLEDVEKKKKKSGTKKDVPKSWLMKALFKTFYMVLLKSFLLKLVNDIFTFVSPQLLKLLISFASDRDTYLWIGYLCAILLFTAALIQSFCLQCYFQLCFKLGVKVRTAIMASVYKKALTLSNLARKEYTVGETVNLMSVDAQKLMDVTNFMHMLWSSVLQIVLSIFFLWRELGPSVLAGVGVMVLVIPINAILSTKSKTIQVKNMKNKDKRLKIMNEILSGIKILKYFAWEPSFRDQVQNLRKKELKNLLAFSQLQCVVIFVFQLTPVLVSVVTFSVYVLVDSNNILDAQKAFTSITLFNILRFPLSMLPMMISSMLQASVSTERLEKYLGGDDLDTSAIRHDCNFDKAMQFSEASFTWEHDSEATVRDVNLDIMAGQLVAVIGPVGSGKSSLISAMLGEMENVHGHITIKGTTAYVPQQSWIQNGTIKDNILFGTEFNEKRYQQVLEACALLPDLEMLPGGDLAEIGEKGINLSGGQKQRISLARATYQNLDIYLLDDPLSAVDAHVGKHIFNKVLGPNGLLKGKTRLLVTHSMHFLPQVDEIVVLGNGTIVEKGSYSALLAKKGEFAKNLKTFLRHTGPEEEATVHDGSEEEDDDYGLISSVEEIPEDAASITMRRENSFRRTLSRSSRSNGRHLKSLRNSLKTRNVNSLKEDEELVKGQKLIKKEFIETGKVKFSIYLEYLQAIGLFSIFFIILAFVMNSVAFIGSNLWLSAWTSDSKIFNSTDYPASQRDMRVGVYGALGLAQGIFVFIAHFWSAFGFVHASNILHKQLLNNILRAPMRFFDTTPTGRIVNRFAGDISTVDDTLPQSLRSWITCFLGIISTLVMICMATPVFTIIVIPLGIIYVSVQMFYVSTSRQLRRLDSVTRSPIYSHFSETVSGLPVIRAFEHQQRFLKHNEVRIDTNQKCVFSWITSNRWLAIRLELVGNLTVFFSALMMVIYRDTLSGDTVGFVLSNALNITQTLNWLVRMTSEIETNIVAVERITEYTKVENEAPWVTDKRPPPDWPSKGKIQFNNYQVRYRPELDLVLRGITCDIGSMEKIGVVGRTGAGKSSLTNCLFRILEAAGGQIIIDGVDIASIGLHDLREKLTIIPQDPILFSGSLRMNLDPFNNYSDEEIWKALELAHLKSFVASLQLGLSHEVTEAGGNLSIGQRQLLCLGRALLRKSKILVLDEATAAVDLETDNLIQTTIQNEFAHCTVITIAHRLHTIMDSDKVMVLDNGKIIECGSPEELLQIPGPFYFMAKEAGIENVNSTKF
compound,measurement,setting,value
"CC#C[C@@H](CC(=O)O)c1ccc(O[C@@H]2CCc3c(-c4ccc(O[C@@H]5CCOC5)nc4)ccc(F)c32)cc1 [Reference Example 1, (S)-3-(4-(((R)-7-Fluoro-4-(6-(((R)-tetrahydrofuran-3-yl)oxy)pyridin-3-yl)-2,3-dihydro-1H-inden-1-yl)oxy)phenyl)hex-4-ynoic acid]",Dose predicted to exceed the CVB burden threshold of 1 mg/day,human hepatocytes [1],over 260 mg a day
same,CVB Burden,human hepatocytes [1]; daily dose 2 mg (human efficacious dose from PK/PD modeling),0.01 mg/day
same,"Covalent binding (CVB), +Aminobenzotriazole (CYP inhibitor)",human hepatocytes [1]; human hepatocytes,29.5 pmol/mg protein
same,"Covalent binding (CVB), +Borneol (UGT inhibitor)",human hepatocytes [1]; human hepatocytes,21.2 pmol/mg protein
same,"Covalent binding (CVB), compound",human hepatocytes [1]; [12],37.6 pmol/mg protein
same,Accumulation of glycocholic acid (GCA),[2]; at 1 μM,does not show significant accumulation
same,IC50,MRP4,4.4 µM
same,"Changes in ECG, vital signs, and lab data",[3]; SAD study,no significant changes
same,Adverse events of special interest / serious adverse events,[3]; SAD study 0.5-10 mg,no adverse event of special interest (AESI) or serious adverse event (SAE) was reported
same,Number of AEs considered possibly related to IMP,"[3]; SAD study, all mild intensity",5
same,Number of adverse events (AE) reported,"[3]; SAD study, compound or placebo",12
same,Tolerability of single doses,[3]; single oral doses 0.5 mg to 10 mg,safe and well tolerated
same,AUC(0-inf),[4]; [13],811 ng·h/mL
same,AUC(0-t),[4]; [13],680 ng·h/mL
same,Cmax,[4]; [13],28.4 ng/mL
same,AUC(0-inf),"[4]; 1 mg, single oral dose 1 mg",1660 ng·h/mL
same,AUC(0-t),"[4]; 1 mg, single oral dose 1 mg",1370 ng·h/mL
same,Cmax,"[4]; 1 mg, single oral dose 1 mg",55.8 ng/mL
same,AUC(0-inf),"[4]; 2 mg, single oral dose 2 mg",2980 ng·h/mL
same,AUC(0-t),"[4]; 2 mg, single oral dose 2 mg",2480 ng·h/mL
same,Cmax,"[4]; 2 mg, single oral dose 2 mg",109 ng/mL
same,AUC(0-inf),[4]; [14],7740 ng·h/mL
same,AUC(0-t),[4]; [14],6520 ng·h/mL
same,Cmax,[4]; [14],243 ng/mL
same,AUC(0-inf),[4]; [15],8270 ng·h/mL
same,AUC(0-t),[4]; [15],6930 ng·h/mL
same,Cmax,[4]; [15],250 ng/mL
same,AUC(0-inf),"[4]; 10 mg, single oral dose 10 mg",18600 ng·h/mL
same,AUC(0-t),"[4]; 10 mg, single oral dose 10 mg",14800 ng·h/mL
same,Cmax,"[4]; 10 mg, single oral dose 10 mg",545 ng/mL
same,Fed/fasted % ratio for AUClast,[4]; single dose 5 mg,106.28%
same,Fed/fasted % ratio for Cmax,[4]; single dose 5 mg,103.19%
same,CC50,[5],52.7 µM
same,Inhibitory effect on mitochondrial function (DILI risk),HepaRG cell,lower DILI risk than fasiglifam
same,Increase of FXR activity,FXR,1.58 fold
same,Effect on various transcription factor (TF) activities,[6],insignificant
same,IC50,[7]; [16],14.3 µM
same,IC50,[7]; read-out: BSEP (bile salt export pump) IC50,14.3 µM
same,Reduction in glucose AUC in OGTT,[8],approximately 20.8%
same,MRP3 in vitro inhibition IC50,MRP3,No inhibition
same,IC50,MRP2,39.9 µM
Cc1cc(OCCCS(C)(=O)=O)cc(C)c1-c1cccc(COc2ccc3c(c2)OC[C@H]3CC(=O)O)c1 [fasiglifam],Activity of AP-1,AP-1,significantly increased
same,Accumulation of glycocholic acid (GCA),[2]; at 4 μM,significant accumulation
same,IC50,MRP4,11.1 µM
same,CVB Burden,human hepatocytes [9]; daily dose 50 mg,2 mg/day
same,"Covalent binding (CVB), compound",human hepatocytes [9]; [12],69.1 pmol/mg protein
same,"Covalent binding (CVB), +Aminobenzotriazole (CYP inhibitor)",human hepatocytes [9]; human hepatocytes,73.7 pmol/mg protein
same,"Covalent binding (CVB), +Borneol (UGT inhibitor)",human hepatocytes [9]; human hepatocytes,44.4 pmol/mg protein
same,Activity of PPAR,PPAR,significantly increased
same,Activity of NRF2,NRF2,significantly increased
same,CC50,[5],88.4 µM
same,IC50,[7]; [16],19.6 µM
same,Cmax,[10]; listed as Fasiglifam,10 µM
same,Cmax,[10],10.1 µM
same,"Cpss, max",[10]; dose 25 mg,4.38 µM
same,"Cpss, max",[10]; dose 50 mg,10.10 µM
same,IC50,MRP3; read-out: MRP3 in vitro inhibition IC50,14.2 µM
same,IC50,MRP2,24.8 µM
CN(C)C(=N)N=C(N)N [metformin],Average improvement in the HbA1c value,[11],1.0-1.5%
